Laboratory results as given in patent US9945843B2, “Methods for identifying compounds that inhibit G protein-coupled receptor (GPR84) agonist-stimulated chemotaxis” (GALAPAGOS NV, priority 2011, dated 2018).

What was measured:
GPR84 [1] = molecular target: T1, GPR84 (Homo sapiens, UniProt Q9NQS5); assay: Human neutrophil migration inhibition assay, Embelin as chemotactic agent; type: cell-based; conditions: for induction of neutrophil chemotaxis: GPR84 agonist used as chemotactic agent; for inhibition at 0.1 µM / inhibition at 1 µM / inhibition at 10 µM: 5 μM Embelin; for inhibition at 0.1 µM: compound 0.1 μM, read-out: Percentage of chemotaxis inhibition (PIN) @ 0.1 μM; for inhibition at 1 µM: compound 1 μM, read-out: Percentage of chemotaxis inhibition (PIN) @ 1 μM; for inhibition at 10 µM: compound 10 μM, read-out: Percentage of chemotaxis inhibition (PIN) @ 10 μM; for IC50: human neutrophils, Embelin as chemotactic agent, read-out: Embelin-induced neutrophil chemotaxis IC50
GPR84 [2] = molecular target: T1, GPR84; design: expressed in transfected cells; conditions: Wang 2006; WO 2007/027661; cited from earlier work
GPR84 [3] = molecular target: T1, GPR84; assay: Functional GPR84 activation assay: GTP-γS binding assay; type: biochemical; design: expressed in transfected cells; conditions: membranes over expressing GPR84; 3,3′ di indolylmethane at EC80; read-out: GTPgS binding EC50
Experimental: The following assay can be used for determination of GPR84 activation.
The assay is performed in a 96 well plate where the following reagents were added. […] In a last step, 30 μL of a mixture consisting of membranes-GTPγS-SpA beads is added [mixture consists of 20 μg/well membranes derived from stable cell line over expressing GPR84 (membranes are pre-incubated with 0.1 μM GDP for 15 min at 4° C.), 0.1 nM [^35S]GTPγS (Perkin Elmer, NEG030) and 0.5 mg/well PVT-WGA SpA beads (Perkin Elmer, RPNQ0001)]. All components are diluted in assay buffer containing 20 mM Hepes pH 7.4; 5 mM MgCl2; 250 mM NaCl; 0.05% BSA; 75 ug/mL saponin. Reactions are incubated for 90 min at room temperature followed by centrifugation at 2000 rpm for 15 min. Plates are read on a Topcount reader (Perkin Elmer) immediately after centrifugation (readout time, 1 min/well).

[4] = system: IL8-stimulated chemotaxis of neutrophils; assay: Human neutrophil migration assay, IL8 as chemotactic agent; conditions: for inhibition at 0.1 µM: read-out: Percentage of chemotaxis inhibition (PIN) @ 0.1 μM; for inhibition at 1 µM: read-out: Percentage of chemotaxis inhibition (PIN) @ 1 μM; for inhibition at 10 µM: read-out: Percentage of chemotaxis inhibition (PIN) @ 10 μM
Experimental: In the neutrophil migration assay, neutrophils, freshly isolated from buffy coats from human volunteers, are treated with a compound for 30 minutes. Subsequently, the neutrophils are transferred to the upper wells of a Corning HTS transwell 96 permeable support system, of which the lower wells are filled with a Embelin solution.
A human buffy coat is diluted with an equal volume of ice cold DPBS. 20 mL of the diluted buffy coat was gently mixed with 4 mL of ACD buffer (140 mM citric acid, 200 mM sodium citrate and 220 mM dextrose). Then, 12 mL of the 6% dextran/0.9% NaCl solution (15 g dextran T2000 and 2.25 g NaCl dissolved in 250 mL H2O) is added to the mixture and the samples are inverted gently up to 20 times. The total volume is transferred to a new recipient and incubated at room temperature for 1 h for complete separation of the two phases to occur. The yellowish supernatant is then transferred to a clean centrifugation tube and centrifuged for 12 minutes at 1300 rpm and 4° C. After centrifugation, the supernatant is discarded and the remaining cell pellet is rapidly resuspended in 12 mL of ice-cold H2O for red blood cell lysis to occur. After 20 seconds, 4 mL of ice-cold 0.6 M KCl is added.
A cell suspension of 8.9×10^6 cells per milliliter is prepared. 20 μL of compound solution in chemotaxis buffer is added to 180 μL cell suspension. The mixture is incubated at 37° C. for 30 minutes with intermediate resuspension of the cells after 15 minutes. […] The receiver well of the transwell system is then filled with 200 μL chemotaxis buffer containing compound and chemotactic agent (Embelin). After incubation at 37° C. in 5% CO2 for 1 h, the upper plate of the transwell system was removed and the cell suspension in the receiver plate is transferred to a 96-well V-bottom plate. 50 μL of DPBS is added to the receiver plate to prevent remaining cells from drying out. The V-bottom plate is centrifuged for 6 minutes at 1500 rpm. The supernatant is removed and the cells are resuspended in 50 μL DPBS. The cells are then transferred back to the receiver plate of the transwell system. […] The plate is incubated for 10 minutes in the dark, while shaking. 170 μL of cell lysate is then transferred to a white 96-well plate and luminescence is measured. The detected luminescent signal is considered as linearly related to the number of cells having migrated from the upper well to the receiver well.
The same assay as described above is also performed using IL8 (25 ng/mL) as a chemotactic agent instead of Embelin.

[5] = system: tobacco smoke-induced pulmonary inflammation; assay: Mouse tobacco smoke model; type: in vivo; conditions: C57BL/6J mice, 4 daily tobacco smoke exposures; data not shown
Source text: To investigate test compounds, animals are divided into several groups: intact (no treatment, n=5), diseased (TS; vehicle alone, n=10), Roflumilast as reference (TS; Roflumilast n=10), and the test compound (TS; […]=10). […] At the end of 4 days, the numbers of macrophages, epithelial cells, neutrophils and lymphocytes are counted in the BAL. BAL was further analyzed for gene expression and protein level. Lung tissue is dissected for histological analysis, gene expression and protein level measurement.

[6] = system: RAW264.7 murine macrophage-like cells; conditions: RAW264.7 cells stimulated with LPS; cited from earlier work
[7] = system: chronic DSS-induced colitis; assay: Mouse chronic DSS-induced inflammatory bowel disease model; type: in vivo; conditions: female BALB/c mice, p.o., data not shown
Source text: The compounds identified using the assay method described in Example 2, or others herein, can be further validated in vivo using known disease models. The mouse chronic DSS-induced inflammatory bowel disease model (IBD) is a well validated disease model for inflammatory bowel disease (Wirtz S. et al., 2007 Nature Protocols 2, 541-546; Sina C. et al., 2009 J. Immunol 183 7514-7522).
To induce a chronic colitis, female BALB/c mice are fed with 4% dextran sodium sulfate (DSS) dissolved in drinking water for 4 days, followed by 3 days of regular drinking water. This cycle is repeated three times. This protocol allows inducing a strong colitis while avoiding high mortality rates. Animals are divided into several groups: • intact (water; vehicle alone, n=10), • diseased (DSS; vehicle alone, n=10), • sulfazalazine used as reference (DSS; sulfazalazine, p.o., n=10) and • the tested compound (DSS; test cpd, p.o., n=10).
Clinical parameters are measured every other day. The disease activity index (DAI) is a composite measure combining of the individual scores for weight loss, stool consistency and rectal bleeding. Mice are sacrificed at day 20 of the experiment according to the protocol introduced by Sina et al. (2009). At sacrifice time, the complete colon is removed and rinsed with sterile PBS. […]

T1 sequence (Q9NQS5 whole entry): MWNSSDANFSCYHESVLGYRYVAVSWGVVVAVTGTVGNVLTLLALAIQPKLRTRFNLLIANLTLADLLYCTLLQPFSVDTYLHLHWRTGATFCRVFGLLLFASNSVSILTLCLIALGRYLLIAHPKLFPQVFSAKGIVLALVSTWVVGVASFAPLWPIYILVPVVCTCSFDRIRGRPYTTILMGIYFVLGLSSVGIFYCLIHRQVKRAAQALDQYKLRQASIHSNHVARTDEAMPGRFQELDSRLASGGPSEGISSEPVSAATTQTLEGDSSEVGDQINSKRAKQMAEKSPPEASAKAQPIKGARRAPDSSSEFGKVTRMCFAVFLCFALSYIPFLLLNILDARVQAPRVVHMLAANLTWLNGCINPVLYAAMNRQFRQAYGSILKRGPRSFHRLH

Structure (SMILES) | induction of neutrophil chemotaxis (GPR84 [1]) | inhibition at 0.1 µM (GPR84 [1]) | inhibition at 1 µM (GPR84 [1]) | inhibition at 10 µM (GPR84 [1]) | IC50 (GPR84 [1]) | EC50 (GPR84 [3]) | GPR84 agonist activity (GPR84 [2]) | inhibition at 0.1 µM [4] | inhibition at 1 µM [4] | inhibition at 10 µM [4] | percentage inhibition of neutrophil counts in BAL [5] | secretion of interleukin-12 p40 subunit (IL-12 p40) [6] | effect against chronic inflammatory bowel disease [7]
c1ccc2c(Cc3c[nH]c4ccccc34)c[nH]c2c1 [3,3′ di indolylmethane, reference compound] | induce neutrophil chemotaxis | – | – | – | – | – | some GPR84 agonist activity | – | – | – | – | – | –
O=c1nc(OCC2COCCO2)cc2n1CCc1cc(OCc3noc(C4CC4)n3)ccc1-2 (stereo not drawn) [Cpd 1, 9-(5-Cyclopropyl-[1,2,4]oxadiazol-3-ylmethoxy)-2-([1,4]dioxan-2-ylmethoxy)-6,7-dihydro-pyrimido[6,1-a]isoquinolin-4-one] | – | 69% | 86% | 89% | 10.4 nM | 36 nM | – | 1% | -11% | 17% | – | – | –
O=c1nc(OCC2COCCO2)cc2n1CCc1cc(COC3CCCC3)ccc1-2 (stereo not drawn) [Cpd 4, 9-Cyclopentyloxymethyl-2-([1,4]dioxan-2-ylmethoxy)-6,7-dihydro-pyrimido[6,1-a]isoquinolin-4-one] | – | – | – | – | – | – | – | 3% | 3% | 19% | – | – | –
O=c1nc(OC[C@H]2COCCO2)cc2n1CCc1cc(COC3CCCC3)ccc1-2 [Cpd 6, 9-Cyclopentyloxymethyl-2-((R)-1-[1,4]dioxan-2-ylmethoxy)-6,7-dihydro-pyrimido[6,1-a]isoquinolin-4-one] | – | – | – | – | – | – | – | 20% | 15% | 35% | – | – | –
CCCCCCCCCCCC1=C(O)C(=O)C=C(O)C1=O [Embelin, 2,5-dihydroxy-3-undecyl-2,5-cyclohexadiene-1,4-dione, reference compound] | induce neutrophil chemotaxis | – | – | – | – | – | some GPR84 agonist activity | – | – | – | – | – | –
O=C(Nc1c(Cl)cncc1Cl)c1ccc(OC(F)F)c(OCC2CC2)c1 [Roflumilast] | – | – | – | – | – | – | – | – | – | – | around 60% | – | –
CCCCCCCCCC(=O)O [capric acid] | – | – | – | – | – | – | – | – | – | – | – | dose-dependently increased | –
CCCCCCCCCCCC(=O)O [lauric acid] | – | – | – | – | – | – | – | – | – | – | – | dose-dependently increased | –
CCCCCCCCCC(=O)[O-].[Na+] [sodium decanoate, reference compound] | induce neutrophil chemotaxis | – | – | – | – | – | – | – | – | – | – | – | –
O=C(O)c1cc(/N=N/c2ccc(S(=O)(=O)Nc3ccccn3)cc2)ccc1O [sulfazalazine] | – | – | – | – | – | – | – | – | – | – | – | – | protective effect
CCCCCCCCCCC(=O)O [undecanoic acid] | – | – | – | – | – | – | – | – | – | – | – | dose-dependently increased | –

More lines, main results first:

induction of neutrophil chemotaxis (GPR84 [1]) | inhibition at 0.1 µM (GPR84 [1]) | inhibition at 1 µM (GPR84 [1]) | inhibition at 10 µM (GPR84 [1]) | IC50 (GPR84 [1]) | EC50 (GPR84 [3]) | Structure (SMILES) | GPR84 agonist activity (GPR84 [2]) | inhibition at 0.1 µM [4] | inhibition at 1 µM [4] | inhibition at 10 µM [4] | percentage inhibition of neutrophil counts in BAL [5] | secretion of interleukin-12 p40 subunit (IL-12 p40) [6] | effect against chronic inflammatory bowel disease [7]
– | 86% | 94% | 90% | 2.74 nM | 40 nM | CCCC(O)C#Cc1ccc2c(c1)CCn1c-2cc(OCC2COCCO2)nc1=O (stereo not drawn) [Cpd 2, 2-([1,4]Dioxan-2-ylmethoxy)-9-(3-hydroxy-hex-1-ynyl)-6,7-dihydro-pyrimido[6,1-a]isoquinolin-4-one] | – | 13% | -6% | 20% | – | – | –
– | 38% | 81% | 72% | 6.34 nM | 25 nM | O=c1nc(OCC2COCCO2)cc2n1CCc1cc(C#CCNc3ccccc3)ccc1-2 (stereo not drawn) [Cpd 3, 2-([1,4]Dioxan-2-ylmethoxy)-9-(3-phenylamino-prop-1-ynyl)-6,7-dihydro-pyrimido[6,1-a]isoquinolin-4-one] | – | 2% | 1% | -13% | – | – | –
– | 73% | 97% | 96% | 62.2 nM | 77 nM | CC(C)C#Cc1ccc2c(c1)CCn1c-2cc(OC[C@@H]2COCCO2)nc1=O [Cpd 5, 2-((S)-1-[1,4]Dioxan-2-ylmethoxy)-9-(3-methyl-but-1-ynyl)-6,7-dihydro-pyrimido[6,1-a]isoquinolin-4-one] | – | 30% | 29% | 48% | – | – | –
– | 54% | 90% | 81% | 83.4 nM | 41 nM | O=c1nc(OCC2COCCO2)cc2n1CCc1cc(CCC(O)c3cccnc3)ccc1-2 (stereo not drawn) [Cpd 7, 2-([1,4]Dioxan-2-ylmethoxy)-9-(3-hydroxy-3-pyridin-3-yl-propyl)-6,7-dihydro-pyrimido[6,1-a]isoquinolin-4-one] | – | 18% | 22% | 13% | – | – | –
– | 52% | 95% | 103% | 41.4 nM | 69 nM | CCC(C)(C)CNc1ccc2c(c1)CCn1c-2cc(OC[C@@H]2COCCO2)nc1=O [Cpd 8, 9-(2,2-Dimethyl-butylamino)-2-((S)-1-[1,4]dioxan-2-ylmethoxy)-6,7-dihydro-pyrimido[6,1-a]isoquinolin-4-one] | – | 9% | 15% | 55% | – | – | –
– | 64% | 94% | 88% | 40.8 nM | 75 nM | O=c1nc(OC[C@@H]2COCCO2)cc2n1CCc1cc(OCC3CCCCO3)ccc1-2 (stereo partly drawn) [Cpd 9, 2-((S)-1-[1,4]Dioxan-2-ylmethoxy)-9-(tetrahydro-pyran-2-ylmethoxy)-6,7-dihydro-pyrimido[6,1-a]isoquinolin-4-one] | – | 25% | 28% | 24% | – | – | –
– | 71% | 87% | 80% | 9.3 nM | 8 nM | O=c1nc(OC[C@@H]2COCCO2)cc2n1CCc1cc(CCCNc3ccccc3)ccc1-2 [Cpd 10, 2-((S)-1-[1,4]Dioxan-2-ylmethoxy)-9-(3-phenylamino-propyl)-6,7-dihydro-pyrimido[6,1-a]isoquinolin-4-one] | – | 13% | 7% | 24% | – | – | –
– | 66% | 90% | 86% | 3.9 nM | – | CC(O)CCCc1ccc2c(c1)CCn1c-2cc(OC[C@@H]2COCCO2)nc1=O (stereo partly drawn) [Cpd 11, 2-((S)-1-[1,4]Dioxan-2-ylmethoxy)-9-(4-hydroxy-pentyl)-6,7-dihydro-pyrimido[6,1-a]isoquinolin-4-one] | – | 7% | 0% | 12% | – | – | –
